Test system: BE(2)-C cell
Test: Cell proliferation assay (MTS) in BE(2)-C cells
Assay type: cell-based
Conditions: Homo sapiens, inhibition of BE(2)-C cell proliferation, 48 h
In short: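 BE(2)-C cells (3000/well, DMEM + 10% FBS) were treated for 48 h at 37 °C with compound at 1.5–10000 nM in nine concentrations. Viability was measured by MTS (2 h, stopped with SDS) at 490/650 nm, and IC50 was calculated from the dose-response.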

SMILES | IC50
CCN1CC2CCC(C1)N2Cc1ccc(Nc2ncc(F)c(-c3cc(F)c4nc5n(c4c3)[C@H](C(F)F)CC5)n2)nc1 [Example 56, 4-((S)-1-(difluoromethyl)-5-fluoro-2,3-dihydro-1H-benzo[d]pyrrolo[1,2-a]imidazol-7-yl)-N-(5-((3-ethyl-3,8-diazabicyclo[3.2.1]octan-8-yl)methyl)pyridin-2-yl)-5-fluoropyrimidin-2-amine] | 10 to 100 nM
Fc1cnc(Nc2ccc(CN3CCC4(CCNCC4)CC3)cn2)nc1-c1cc(F)c2nc3n(c2c1)[C@H](C(F)(F)F)CC3 [Example 70, (S)-N-(5-((3,9-diazaspiro[5.5]undecan-3-yl)methyl)pyridin-2-yl)-5-fluoro-4-(5-fluoro-1-(trifluoromethyl)-2,3-dihydro-1H-benzo[d]pyrrolo[1,2-a]imidazol-7-yl)pyrimidin-2-amine] | > 1000 nM
CN1CC2CN(Cc3ccc(Nc4ncc(F)c(-c5cc(F)c6nc7n(c6c5)[C@H](CF)CC7)n4)nc3)CC2C1 (stereo partly drawn) [Example 27, 5-fluoro-4-((S)-5-fluoro-1-(fluoromethyl)-2,3-dihydro-1H-benzo[d]pyrrolo[1,2-a]imidazol-7-yl)-N-(5-((5-methylhexahydropyrrolo[3,4-c]pyrrol-2(1H)-yl)methyl)pyridin-2-yl)pyrimidin-2-amine] | 10 to 100 nM
CCN1CCN(Cc2ccc(Nc3ncc(F)c(-c4cc(F)c5nc6n(c5c4)C4(CC6)CC4)n3)nc2)CC1 [Example 15, N-(5-((4-ethylpiperazin-1-yl)methyl)pyridin-2-yl)-5-fluoro-4-(5-fluoro-2,3-dihydrospiro[benzo[d]pyrrolo[1,2-a]imidazole-1,1′-cyclopropan]-7-yl)pyrimidin-2-amine] | > 100 nM
COC[C@H]1CCc2nc3c(F)cc(-c4nc(Nc5ccc(CN6CCN(C)CC6)cn5)ncc4F)cc3n21 [Example 159, (R)-5-fluoro-4-(5-fluoro-1-(methoxymethyl)-2,3-dihydro-1H-benzo[d]pyrrolo[1,2-a]imidazol-7-yl)-N-(5-((4-methylpiperazin-1-yl)methyl)pyridin-2-yl)pyrimidin-2-amine] | > 1000 nM
CCN1CCN(Cc2ccc(Nc3ncc(F)c(-c4cc(F)c5nc6n(c5c4)[C@@H](COC)CC6)n3)nc2)CC1 [Example 160, (R)-N-(5-((4-ethylpiperazin-1-yl)methyl)pyridin-2-yl)-5-fluoro-4-(5-fluoro-1-(methoxymethyl)-2,3-dihydro-1H-benzo[d]pyrrolo[1,2-a]imidazol-7-yl)pyrimidin-2-amine] | > 100 nM
CCN1C2CCC1CN(Cc1ccc(Nc3ncc(F)c(-c4cc(F)c5nc6n(c5c4)C(C)(C)CC6)n3)nc1)C2 [Example 131, N-(5-((8-ethyl-3,8-diazabicyclo[3.2.1]octan-3-yl)methyl)pyridin-2-yl)-5-fluoro-4-(5-fluoro-1,1-dimethyl-2,3-dihydro-1H-benzo[d]pyrrolo[1,2-a]imidazol-7-yl)pyrimidin-2-amine] | 10 to 100 nM
C[C@@H]1CCc2nc3c(F)cc(-c4nc(Nc5ccc(CN6C7CCC6CN(C)C7)cn5)ncc4F)cc3n21 [Example 102, 5-fluoro-4-((R)-5-fluoro-1-methyl-2,3-dihydro-1H-benzo[d]pyrrolo[1,2-a]imidazol-7-yl)-N-(5-((3-methyl-3,8-diazabicyclo[3.2.1]octan-8-yl)methy1)pyridin-2-yl)pyrimidin-2-amine] | 10 to 100 nM
CCN1CCN(Cc2cnc(Nc3cc(-c4cc(F)c5nc6n(c5c4)C(C)(C)CC6)c(F)cn3)nc2)CC1 [Example 166, 5-((4-ethylpiperazin-1-yl)methyl)-N-(5-fluoro-4-(5-fluoro-1,1-dimethyl-2,3-dihydro-1H-benzo[d]pyrrolo[1,2-a]imidazol-7-yl)pyridin-2-yl)pyrimidin-2-amine] | > 100 nM
CN1CCC2(CC1)CN(Cc1ccc(Nc3ncc(F)c(-c4cc(F)c5nc6n(c5c4)C(C)(C)CC6)n3)nc1)C2 [Example 112, 5-fluoro-4-(5-fluoro-1,1-dimethyl-2,3-dihydro-1H-benzo[d]pyrrolo[1,2-a]imidazol-7-yl)-N-(5-((7-methyl-2,7-diazaspiro[3.5]nonan-2-yl)methyl)pyridin-2-yl)pyrimidin-2-amine] | < 10 nM
FC[C@@H]1CCc2nc3c(F)cc(-c4nc(Nc5ccc(CN6CC7(CCNCC7)C6)cn5)ncc4F)cc3n21 [Example 20, (S)-N-(5-((2,7-diazaspiro[3.5]nonan-2-yl)methyl)pyridin-2-yl)-5-fluoro-4-(5-fluoro-1-(fluoro-methyl)-2,3-dihydro-1H-benzo[d]pyrrolo[1,2-a]imidazol-7-yl)pyrimidin-2-amine] | > 1000 nM
CN1CC2CN(Cc3ccc(Nc4ncc(F)c(-c5cc(F)c6nc7n(c6c5)C(C)(C)CC7)n4)nc3)CC2C1 (stereo not drawn) [Example 124, 5-fluoro-4-(5-fluoro-1,1-dimethyl-2,3-dihydro-1H-benzo[d]pyrrolo[1,2-a]imidazol-7-yl)-N-(5-((5-methylhexahydropyrrolo[3,4-c]pyrrol-2(1H)-yl)methyl)pyridin-2-yl)pyrimidin-2-amine] | 10 to 100 nM
Fc1cnc(Nc2ccc(CN3CCN4CCC[C@@H]4C3)cn2)nc1-c1cc(F)c2nc3n(c2c1)[C@H](C(F)(F)F)CC3 [Example 60, 5-fluoro-4-((S)-5-fluoro-1-(trifluoromethyl)-2,3-dihydro-1H-benzo[d]pyrrolo[1,2-a]imidazol-7-yl)-N-(5-(((R)-hexahydropyrrolo[1,2-a]pyrazin-2(1H)-yl)methyl)pyridin-2-yl)pyrimidin-2-amine] | 10 to 100 nM
CCN1CC2CN(Cc3ccc(Nc4ncc(F)c(-c5cc(F)c6nc7n(c6c5)C5(CC7)CC5)n4)nc3)CC21 (stereo not drawn) [Example 143, N-(5-((6-ethyl-3,6-diazabicyclo[3.2.0]heptan-3-yl)methyl)pyridin-2-yl)-5-fluoro-4-(5-fluoro-2,3-dihydrospiro[benzo[d]pyrrolo[1,2-a]imidazole-1,1′-cyclopropan]-7-yl)pyrimidin-2-amine] | > 1000 nM
Fc1cnc(Nc2ccc(CN3CC4(CCNCC4)C3)cn2)nc1-c1cc(F)c2nc3n(c2c1)[C@H](C(F)(F)F)CC3 [Example 61, (S)-N-(5-((2,7-diazaspiro[3.5]nonan-2-yl)methyl)pyridin-2-yl)-5-fluoro-4-(5-fluoro-1-(trifluoro-methyl)-2,3-dihydro-1H-benzo[d]pyrrolo[1,2-a]imidazol-7-yl)pyrimidin-2-amine] | > 100 nM
CN1CCN(Cc2ccc(Nc3ncc(F)c(-c4cc(F)c5nc6n(c5c4)[C@H](CO)CC6)n3)nc2)CC1 [Example 2, (S)-(5-fluoro-7-(5-fluoro-2-((5-((4-methylpiperazin-1-yl)methyl)pyridin-2-yl)amino)pyrimidin-4-yl)-2,3-dihydro-1H-benzo[d]pyrrolo[1,2-a]imidazol-1-yl)methanol] | > 100 nM
Fc1cnc(Nc2ccc(CN3CC4CCC(C3)N4)cn2)nc1-c1cc(F)c2nc3n(c2c1)[C@H](C(F)F)CC3 [Example 57, N-(5-((3,8-diazabicyclo[3.2.1]octan-3-yl)methyl)pyridin-2-yl)-4-((S)-1-(difluoromethyl)-5-fluoro-2,3-dihydro-1H-benzo[d]pyrrolo[1,2-a]imidazol-7-yl)-5-fluoropyrimidin-2-amine] | > 100 nM
CN1C2CCC1CN(Cc1ccc(Nc3ncc(F)c(-c4cc(F)c5nc6n(c5c4)[C@H](C(F)F)CC6)n3)nc1)C2 [Example 58, 4-((S)-1-(difluoromethyl)-5-fluoro-2,3-dihydro-1H-benzo[d]pyrrolo[1,2-a]imidazol-7-yl)-5-fluoro-N-(5-((8-methyl-3,8-diazabicyclo[3.2.1]octan-3-yl)methyl)pyridin-2-yl)pyrimidin-2-amine] | 10 to 100 nM
C[C@@H]1CCc2nc3c(F)cc(-c4nc(Nc5ccc(CN6CC7CCC(C6)N7C)cn5)ncc4F)cc3n21 [Example 105, 5-fluoro-4-((R)-5-fluoro-1-methyl-2,3-dihydro-1H-benzo[d]pyrrolo[1,2-a]imidazol-7-yl)-N-(5-((8-methyl-3,8-diazabicyclo[3.2.1]octan-3-yl)methyl)pyridin-2-yl)pyrimidin-2-amine] | 10 to 100 nM
CCN1CC2(CCN(Cc3ccc(Nc4ncc(F)c(-c5cc(F)c6nc7n(c6c5)[C@H](C)CC7)n4)nc3)CC2)C1 [Example 88, (R)-N-(5-((2-ethyl-2,7-diazaspiro[3.5]nonan-7-yl)methyl)pyridin-2-yl)-5-fluoro-4-(5-fluoro-1-methyl-2,3-dihydro-1H-benzo[d]pyrrolo[1,2-a]imidazol-7-yl)pyrimidin-2-amine] | 10 to 100 nM
CCN1C[C@@H]2C[C@H]1CN2Cc1ccc(Nc2ncc(F)c(-c3cc(F)c4nc5n(c4c3)C3(CC5)CC3)n2)nc1 [Example 137, N-(5-(((1S,4S)-5-ethyl-2,5-diazabicyclo[2.2.1]heptan-2-yl)methyl)pyridin-2-yl)-5-fluoro-4-(5-fluoro-2,3-dihydrospiro[benzo[d]pyrrolo[1,2-a]imidazole-1,1′-cyclopropan]-7-yl)pyrimidin-2-amine] | 10 to 100 nM
CN1C[C@@]2(C)CN(Cc3ccc(Nc4ncc(F)c(-c5cc(F)c6nc7n(c6c5)C5(CC7)CC5)n4)nc3)C[C@@]2(C)C1 [Example 139, 5-fluoro-4-(5-fluoro-2,3-dihydrospiro[benzo[d]pyrrolo[1,2-a]imidazole-1,1′-cyclopropan]-7-yl)-N-(5-(((3aR,6aS)-3a,5,6a-trimethylhexahydro-pyrrolo[3,4-c]pyrrol-2(1H)-yl)methyl)pyridin-2-yl)pyrimidin-2-amine] | > 1000 nM
CCN1CCC2(CC1)CN(Cc1ccc(Nc3ncc(F)c(-c4cc(F)c5nc6n(c5c4)[C@H](CF)CC6)n3)nc1)C2 [Example 22, (S)-N-(5-((7-ethyl-2,7-diazaspiro[3.5]nonan-2-yl)methyl)pyridin-2-yl)-5-fluoro-4-(5-fluoro-1-(fluoromethyl)-2,3-dihydro-1H-benzo[d]pyrrolo[1,2-a]imidazol-7-yl)pyrimidin-2-amine] | > 100 nM
CN1CCC2(CC1)CN(Cc1ccc(Nc3ncc(F)c(-c4cc(F)c5nc6n(c5c4)[C@H](C(F)(F)F)CC6)n3)nc1)C2 [Example 62, (S)-5-fluoro-4-(5-fluoro-1-(trifluoromethyl)-2,3-dihydro-1H-benzo[d]pyrrolo[1,2-a]imidazol-7-yl)-N-(5-((7-methyl-2,7-diazaspiro[3.5]nonan-2-yl)methyl)pyridin-2-yl)pyrimidin-2-amine] | 10 to 100 nM
